Values quoted from earlier work, collected in patent publication US20110236538A1, “CHITIN DERIVATIVE AND NATURAL SWEETENER CONJUGATE FOR CONTROLLING INGESTED FAT IN HUMANS AND HAVING SWEETENING PROPERTIES” (priority 2008, published 2011).

Settings: successive lines = successive pKa of di- and trivalent acids

O=C(O)C(Cl)(Cl)Cl [Trichloroacetic]
pKa (25° C.): 0.70
